The values below come from PMC8073719, “Biochemical and Biophysical Characterization of Recombinant Human 3-Phosphoglycerate Dehydrogenase” (International Journal of Molecular Sciences, 2021).

pKd, pKi: −log10 of the molar value. “And” between values parts separate entries of the source, which are not always exact repeats. Equal values may be shown once. “Also recorded” adds a separate entry of the source. Read-outs that look alike come from different tables or passages of the source.

For assay [1], the target named is T1, hPHGDH (Homo sapiens, UniProt O43175).
T1 sequence (O43175 1-533): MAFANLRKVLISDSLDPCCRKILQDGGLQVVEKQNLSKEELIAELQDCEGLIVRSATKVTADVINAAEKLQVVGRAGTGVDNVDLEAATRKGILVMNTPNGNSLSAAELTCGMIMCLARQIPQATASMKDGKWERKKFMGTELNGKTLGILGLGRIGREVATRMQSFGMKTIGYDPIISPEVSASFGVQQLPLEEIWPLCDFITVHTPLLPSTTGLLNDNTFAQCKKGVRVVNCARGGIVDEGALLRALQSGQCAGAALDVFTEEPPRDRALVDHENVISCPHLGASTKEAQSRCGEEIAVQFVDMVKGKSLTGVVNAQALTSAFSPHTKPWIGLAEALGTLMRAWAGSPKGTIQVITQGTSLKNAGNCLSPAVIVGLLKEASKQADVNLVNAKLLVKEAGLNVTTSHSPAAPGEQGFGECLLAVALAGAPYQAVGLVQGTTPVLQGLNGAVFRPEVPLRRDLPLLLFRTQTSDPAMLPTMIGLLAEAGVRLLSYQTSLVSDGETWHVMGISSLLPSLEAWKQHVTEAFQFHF
The assay can be described thus: hPHGDH forward reaction kinetics (PSAT-coupled or hydrazine assay, NADH fluorescence). Format: biochemical. On the set-up: His-tagged full-length hPHGDH was expressed in BL21(DE3) E. coli cells; made in house; host or cells: E. coli BL21(DE3). The protocol:
PSAT was added to drive the reaction and to avoid product inhibition of hPHGDH.
(§1) The latter assay was used to determine the apparent kinetic parameters on alternative substrates.

The target of assay [2] is T1, hPHGDH. Further details: His-tagged full-length hPHGDH was expressed in BL21(DE3) E. coli cells; made in house; host or cells: E. coli BL21(DE3). To be noted: cited from earlier work.
Assay [3] addresses T1, hPHGDH. Description: Effect of salts, phosphate and serine synthesis metabolites on hPHGDH activity (hydrazine assay). In kind it is biochemical. Further details: His-tagged full-length hPHGDH was expressed in BL21(DE3) E. coli cells; made in house; host or cells: E. coli BL21(DE3). To be noted: for decrease of hPHGDH activity: […] 3PG. From the text: The effects of KCl, NaCl, MgCl2 and CaCl2 and of pH and temperature on enzyme activity and stability were investigated using the hydrazine assay. […] The dependence of activity on pH was fitted using an equation for three pKa values, according to [44], providing apparent values unrelated to microscopic ones.

Assay [4] concerns the target T1, hPHGDH. Description: Temperature-ramp unfolding (melting temperature) with cofactors. Further details: His-tagged full-length hPHGDH was expressed in BL21(DE3) E. coli cells; made in house; host or cells: E. coli BL21(DE3). In kind it is binding.
Description: Temperature-ramp experiments were performed in 10 mM potassium phosphate, pH 7.0. For this, a software-driven, Peltier-equipped fluorimeter was used to measure the protein fluorescence change at 330 nm or a CD spectropolarimeter to follow the CD signal at 280 nm in order to reproduce a temperature gradient (0.5 °C/min) [31].
The target in assay [5] is T1, hPHGDH. The assay can be described thus: Ligand binding by quenching of protein fluorescence at 330 nm.
Description: Protein fluorescence spectra were measured at 0.06–0.1 mg/mL protein concentration in 10 mM potassium phosphate, pH 7.0, 15 °C; spectra were recorded using a Jasco FP-750 instrument and were corrected for the buffer contribution. Protein fluorescence spectra were recorded between 300 and 450 nm, with excitation at 280 and 298 nm.
All recorded spectra were subtracted for the contribution of the ligand (added to the buffer only) and were corrected for dilution at every addition. […] In all cases, Kd values were determined by fitting the data to a hyperbolic function.
In assay [6] the target is T1, hPHGDH. The assay can be described thus: Inhibition of hPHGDH activity by inhibitors (hydrazine assay). On the set-up: His-tagged full-length hPHGDH was expressed in BL21(DE3) E. coli cells; made in house; host or cells: E. coli BL21(DE3). In kind it is biochemical. To be noted: kinetics on 3PG at increasing inhibitor concentration.
Assay [7] concerns the target T1, hPHGDH. The assay can be described thus: Limited proteolysis with trypsin, SDS-PAGE. The conditions noted are these: 5% (w/w) trypsin; 250 mM potassium phosphate, 500 mM sodium tartrate or 0.1 mM NCT-503. Further details: His-tagged full-length hPHGDH was expressed in BL21(DE3) E. coli cells; made in house; host or cells: E. coli BL21(DE3). The protocol: hPHGDH at 0.4 mg/mL was incubated at 25 °C in 50 mM Hepes pH 7.5, 100 mM NaCl, 10% (v/v) glycerol, 1 mM EDTA and 5 mM 2-mercaptoethanol in the presence of 5% (w/w) trypsin (Roche, Basel, Switzerland). […] At different times (0, 30, 60, 120 and 240 min), 8 µg of protein was diluted in SDS-sample buffer, heated at 95 °C for 5 min and analyzed by SDS-PAGE.

In assay [8] the target is T1, hPHGDH. The assay can be described thus: hPHGDH reverse reaction kinetics (decrease in NADH fluorescence at 450 nm). To be noted: reverse reaction, 5 mM NADH.
Description: as §1

Assay [9] deals with E. coli PHGDH. The conditions noted are these: reverse reaction; cited from earlier work.
The mark [10] stands for this setting: substrate varied, […] NAD+, hydrazine assay, Figure S3B,D-F.

For the compound `O=C(O)C(O)COP(=O)(O)O` [3PG, D-3-phosphoglycerate], in [1] (3PG varied, 120 µM NAD+, PSAT-coupled assay, Figure S3A), the “maximal rate of Michaelis–Menten fit (numerator of y = a x/(b + x))” value is given as 1.282. Further, the “maximal rate of Michaelis–Menten fit” value in assay [1] (3PG varied, 120 µM NAD+, hydrazine assay, Figure S3A) is listed as 1.5348; in assay [1] (setting [10]), 2.972. Also, the kcat in assay [1] (forward reaction, substrate varied, 120 µM NAD^+, PSAT-coupled (1) and hydrazine (2) assays, 37 °C, 25 mM Hepes pH 7.0, per monomer) was 1.5 s⁻¹. In addition, in assay [1] (forward reaction, substrate varied, 120 µM NAD^+, PSAT-coupled (1) and hydrazine (2) assays, 37 °C, pH 7.0), the Km is 260 µM. Moreover, in assay [2] (negative cooperativity in a previous work), the Hill coefficient n is reported as 0.63–0.67.

`CC(O)CC(=O)O` [D-3-Hydroxybutyrate]: the “maximal rate of Michaelis–Menten fit” value in assay [1] (setting [10]) worked out at 2.527.

For `C[C@@H](O)C(=O)O` [D-Lactate], the “maximal rate of Michaelis–Menten fit” value in assay [1] (setting [10]) is 5.407.

With `O=C(O)C[C@@H](O)C(=O)O` [D-Malate], in assay [1] (setting [10]), the “maximal rate of Michaelis–Menten fit” value was 0.4351.

Take `O=C(O)[C@@H](O)[C@H](O)C(=O)O` [D-Tartrate]: the “maximal rate of Michaelis–Menten fit” value in [1] (setting [10]) is 0.4125.

Turning to `N[C@H](CO)C(=O)O` [D-serine], the “decrease of hPHGDH activity” value in assay [3] (at 250 mM D-serine) was ~ 25%.

For the compound `[Cl-].[K+]` [KCl], the “decrease of hPHGDH activity” value in assay [3] (at 10 mM KCl, […] NAD+) came out at 40%. Moreover, the initial activity lost in assay [3] (at ≥10 mM KCl) is given as 30%.

For `NC(=O)c1ccc[n+]([C@@H]2O[C@H](COP(=O)(O)OP(=O)(O)OC[C@H]3O[C@@H](n4cnc5c(N)ncnc54)[C@H](O)[C@@H]3O)[C@@H](O)[C@H]2O)c1` [NAD^+], the “maximal rate of Michaelis–Menten fit” value in assay [1] (NAD+ varied, 2.5 mM 3PG, PSAT-coupled assay, Figure S3C) was determined as 2.039; in [1] (NAD+ varied, 2.5 mM 3PG, hydrazine assay, Figure S3C), 2.4118. Also, the “Tm, circular dichroism signal at 280 nm” value in assay [4] (120 µM NAD^+ or 100 µM NADH, protein alone 47.5) was 48.2 °C. Also, the “Tm, CD (220 nm)” value in [4] (+120 μM NAD^+ or +100 μM NADH, hPHGDH alone 47.2 ± 0.5) stood at 48.2 ± 1.7 °C. Also, the “Tm, Fluorescence (330 nm)” value in assay [4] (+120 μM NAD^+ or +100 μM NADH, hPHGDH alone 48.4 ± 2.1) is 52.4 °C and 52.4 ± 0.4 °C. The negative logarithm of the Kd (pKd) is around 3.89 in [5] (Kd (NAD^+; main phase of NADH binding), discussion value) and 3.89 in assay [5] (Kd, quenching of protein fluorescence at 15 °C, 1 μM enzyme, monophasic).

In the case of `Cc1cc(C)nc(NC(=S)N2CCN(Cc3ccc(C(F)(F)F)cc3)CC2)c1` [NCT-503], the mechanism of inhibition entry in assay [6] was “noncompetitive inhibitor; also recorded: noncompetitive inhibition mechanism”. In [7], the “proteolysis of the full-length enzyme” value is listed as “to a lesser extent”.

For the compound `[Cl-].[Na+]` [NaCl], the initial activity lost in assay [3] (at >20 mM NaCl) is on record as 30%.

As to `O=C(O)CC(=O)C(=O)O` [Oxaloacetate], in [8] (Figure S4A,C,D), the “maximal rate of fit with substrate inhibition” value worked out at 1.7591.

For the compound `O=P(O)(O)O` [potassium phosphate], in [3] (at 1 mM potassium phosphate), the activity lost is recorded as 30%. Also, the “effect on enzymatic activity” value in assay [3] (at 400 mM phosphate) is “fully abrogated”. Besides, in [7], the “proteolysis of the full-length enzyme” value is “hampered”.

As for `O=C([O-])C(O)C(O)C(=O)[O-].[Na+].[Na+]` (centres unmarked) [sodium tartrate], the “proteolysis of the full-length enzyme” value in assay [7] is reported as “hampered”.

For `O=C(O)CCC(=O)C(=O)O` [α-Ketoglutarate], the Km in assay [9] was 500 µM; in assay [2] (commercial enzyme preparation) it was around 10000 µM. The pKi in assay [8] (Ki (substrate inhibition), 37 °C, pH 7.0) is 1.88; in [8] (Ki of fit with substrate inhibition, Figure S4A,C,D), 1.88.

One may read the kcat as the maximal rate divided by the concentration of active sites. The term Km denotes the substrate concentration at which the rate is half of its maximum. One may read the pKd as the Kd on a negative log10 scale, so that one unit is a factor of ten. High values mean a low Kd, low ones a high Kd. A word on the pKi: it is the Ki on a negative log10 scale, so that one unit is a factor of ten. Higher therefore signals a low Ki.
